Measured values reported in US11884649B2, “IRE1α inhibitors and uses thereof” (The Regents of the University of California, priority 2020, dated 2024).

Test system: XBP1 mRNA splicing
Experiment: XBP1 splicing in human islets subjected to ER stress
Assay type: cell-based
Conditions: DTT, 20 μM compound
Procedure: INS-1 or isogenic IRE1α-overexpressing INS-1 cells were plated onto Poly-D-Lysine coated tissue culture plate and grown for 48 hrs. Inhibitors or DMSO were added to the media and incubated for 1 hour at 37° C. with 5% CO2 prior to addition of ER stress agents or Dox as indicated. RNA was isolated from whole cells using either QIAGEN RNeasy Mini kits or Trizol (Invitrogen) and reverse transcribed as above to obtain total cDNA. Then, XBP-1 primers were used to amplify an XBP-1 amplicon spanning the 26 nt intron from the cDNA samples in a regular 3-step PCR. Thermal cycles were: 5 min at 95° C., 30 cycles of 30 s at 95° C., 30 s at 60° C., and 1 min at 72° C., followed by 72° C. for 15 min, and hold at 4° C. Primers used for XBP-1 mRNA splicing were as follows: sense primer XBP1.3 S (5′ […]-3′ (SEQ ID NO:2)) and antisense primer XBP1.2AS (5′-[…]-3′ (SEQ ID NO:3)). PCR fragments were then digested by PstI, resolved on 3% agarose gels, stained with EtBr and quantified by densitometry using ImageJ (NIH). For standard mRNA detection, generally […] total RNA was reverse transcribed using the QuantiTect Reverse Transcription Kit (QIAGEN). […]
Non-diabetic human islets were obtained and cultured in supplemented Prodo Islet Medium (PIM(S) from Prodo Labs). […] Collected media were analyzed by anti-insulin ELISA (EMD Millipore) and insulin levels were normalized to total protein amount.

In the case of `O=S(=O)(CC(F)(F)F)Nc1ccc(Oc2ncccc2-c2ccnc(N[C@H]3CCCNC3)n2)c2ccccc12` (stereo in doubt) [PAIR1, 2,2,2-trifluoro-N-(4-(3-(2-(piperidin-3-ylamino)pyrimidin-4-yl)pyridin-2-yloxy)naphthalen-1-yl)ethanesulfonamide], the “XBP1 mRNA splicing” value is reported as “only weakly inhibited”.
